Results reported in patent publication US8193150B2, “Improving vascular function with an inactivating mutant of a TRPC channel protein” (Sanofi, priority 2005, dated 2012).
Where a name gives a salt, the structure may show the parent alone.

Experiments:
[1] = molecular target: T1, TRPC3 (Homo sapiens, UniProt Q13507); assay: FLIPR Ca2+ fluorescence assay in inducible Flp-In T-REx-TRPC3 HEK 293 cells; type: cell-based; details: mean±SEM; for Fluorescence changes (F/F0): 200 nM trypsin, t=60 sec, n=9
T1 construct: expressed in transfected cells
T1 sequence (Q13507 74-921): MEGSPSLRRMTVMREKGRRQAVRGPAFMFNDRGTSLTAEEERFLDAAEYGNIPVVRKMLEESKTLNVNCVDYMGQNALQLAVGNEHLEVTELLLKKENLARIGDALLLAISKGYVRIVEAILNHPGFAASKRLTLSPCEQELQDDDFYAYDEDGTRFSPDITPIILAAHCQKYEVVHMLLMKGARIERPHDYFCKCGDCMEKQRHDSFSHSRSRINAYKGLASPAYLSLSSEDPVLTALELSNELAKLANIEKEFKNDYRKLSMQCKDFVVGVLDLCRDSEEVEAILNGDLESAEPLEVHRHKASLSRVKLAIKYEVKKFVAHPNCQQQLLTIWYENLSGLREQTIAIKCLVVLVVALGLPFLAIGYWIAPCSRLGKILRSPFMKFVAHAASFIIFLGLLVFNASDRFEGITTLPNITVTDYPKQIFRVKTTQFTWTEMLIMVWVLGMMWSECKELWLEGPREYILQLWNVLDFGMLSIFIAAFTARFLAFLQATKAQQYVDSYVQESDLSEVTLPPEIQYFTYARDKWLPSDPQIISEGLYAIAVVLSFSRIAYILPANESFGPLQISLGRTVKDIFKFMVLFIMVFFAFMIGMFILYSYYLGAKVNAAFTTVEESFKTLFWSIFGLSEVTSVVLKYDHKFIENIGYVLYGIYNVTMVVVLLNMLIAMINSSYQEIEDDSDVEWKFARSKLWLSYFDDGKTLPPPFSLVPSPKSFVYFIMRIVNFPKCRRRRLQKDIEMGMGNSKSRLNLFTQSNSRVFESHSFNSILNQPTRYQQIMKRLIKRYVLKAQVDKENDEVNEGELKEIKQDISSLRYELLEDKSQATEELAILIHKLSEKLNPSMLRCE
From the text: (§1) To develop an assay for the identification of TRPC channel modulators, recombinant HEK 293 cell lines were produced using the Flp-In T-REx system (Invitrogen, Karsruhe, Germany) that express TRPC3 (accession # U47050) or TRPC6 (accession # AF080394) cDNAs under the control of an inducible promoter. Channel cDNAs were amplified by standard techniques and cloned into pcDNA5/FRT/TO (Invitrogen, Karlsruhe, Germany). After transfection of Flp-In T-Rex 293 cells with the channel constructs stable cell lines were selected with hygromycin. Cells were maintained according to the manufactures instructions and channel expression of was induced by addition of 1 μg/ml doxycycline for 20-30 h. Cells were plated into 96 well poly-d-lysine coated black walled clear bottom microtiter plates (BD Biosciences, Bedford, Mass.) at a density of 40000-50000 cells/well 20-30 h before experiments. […] Ca^2+ measurements were performed using a 96 well Fluorescence Imaging Plate Reader (FLIPR), (Molecular Devices Corporation, Sunnyvale, Calif.). […]
(§2) Fluorescence changes in fluo-4 loaded cells were measured using FLIPR II. […] Shown are mean fluorescence values±SEM from 9 wells each. Fluorescence values were normalized to the mean baseline fluorescence (F0).
(§3) To identify modulators of TRPC3 or TRPC6 with the assays described above induced cells were used and test compounds are added to the wells before or after application of OAG. The expected effect of inhibitors would be a reduction of the fluorescence increase. Channel activators would lead to a further increase of the OAG-evoked signal or induce an OAG-independent fluorescence increase. […]
(§4) Fluorescence changes induced by 30 μM OAG in TRPC3-and TRPC6 expressing cells were measured in the presence of the given concentrations of SKF 96365. […] Inhibition is expressed as % of control fluorescence in the absence of SKF 96365. […]

[2] = molecular target: T2, TRPC6 (Homo sapiens, UniProt Q9Y210); assay: FLIPR Ca2+ fluorescence assay in inducible Flp-In T-REx-TRPC6 HEK 293 cells; type: cell-based; details: mean±SEM; for Fluorescence changes (F/F0): 200 nM trypsin, t=60 sec, n=12
T2 construct: expressed in transfected cells
T2 sequence (Q9Y210 1-931): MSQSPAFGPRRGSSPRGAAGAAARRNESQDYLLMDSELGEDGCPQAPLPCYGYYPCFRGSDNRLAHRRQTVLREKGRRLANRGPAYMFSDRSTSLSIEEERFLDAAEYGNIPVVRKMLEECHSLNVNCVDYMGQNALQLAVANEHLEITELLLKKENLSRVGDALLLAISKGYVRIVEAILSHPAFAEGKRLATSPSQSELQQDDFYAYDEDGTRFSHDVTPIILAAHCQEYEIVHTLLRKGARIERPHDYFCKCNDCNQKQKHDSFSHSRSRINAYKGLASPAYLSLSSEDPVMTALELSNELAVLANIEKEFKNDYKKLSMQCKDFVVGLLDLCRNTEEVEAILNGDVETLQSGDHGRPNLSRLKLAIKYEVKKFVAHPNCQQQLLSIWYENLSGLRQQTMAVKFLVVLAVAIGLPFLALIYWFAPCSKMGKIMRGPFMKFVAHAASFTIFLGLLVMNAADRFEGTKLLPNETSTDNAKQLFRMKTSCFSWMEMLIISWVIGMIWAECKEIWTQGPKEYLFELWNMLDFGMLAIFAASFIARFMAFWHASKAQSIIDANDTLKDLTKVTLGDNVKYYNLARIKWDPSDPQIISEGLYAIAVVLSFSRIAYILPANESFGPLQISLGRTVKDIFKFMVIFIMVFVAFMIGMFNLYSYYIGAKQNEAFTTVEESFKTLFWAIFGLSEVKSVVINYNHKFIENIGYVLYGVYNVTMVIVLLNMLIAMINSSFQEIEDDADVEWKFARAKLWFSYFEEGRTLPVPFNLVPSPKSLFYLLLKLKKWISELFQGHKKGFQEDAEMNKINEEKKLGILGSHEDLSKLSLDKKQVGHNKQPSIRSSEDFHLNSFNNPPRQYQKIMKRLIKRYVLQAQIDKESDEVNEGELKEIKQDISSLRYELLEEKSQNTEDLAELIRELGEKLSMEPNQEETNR
From the text: as §1, §2, §3, §4

Row | Fluorescence changes (F/F0) ([1]; induced Flp-In T-REx-TRPC3 cells) | Fluorescence changes (F/F0) ([1]; non-induced Flp-In T-REx-TRPC3 cells) | Fluorescence changes (F/F0) ([2]; induced Flp-In T-REx-TRPC6 cells) | Fluorescence changes (F/F0) ([2]; non-induced Flp-In T-REx-TRPC6 cells) | IC50 ([1]; doxycycline-induced cells, 30 μM OAG, n=8, read-out: IC50, inhibition of OAG-activated fluorescence responses in TRPC3 expressing cells) [µM] | IC50 ([2]; doxycycline-induced cells, 30 μM OAG, n=8, read-out: IC50, inhibition of OAG-activated fluorescence responses in TRPC6 expressing cells) [µM] | Compound
1 | 2.71 ± 0.022 (n = 9) | 1.65 ± 0.034 (n = 9) | 2.26 ± 0.05 (n = 12) | 0.88 ± 0.009 (n = 12) | – | – | trypsin
2 | – | – | – | – | 1.8 | 5.04 ± 0.17 | COc1ccc(CCCOC(Cn2ccnc2)c2ccc(OC)cc2)cc1 (stereo not drawn) [SKF 96365, 1-(β-[3-(4-methoxyphenyl)propoxy]-4-methoxyphenethyl)-1H-imidazole-HCl]
